{"source": "patent US11274280B2", "about": "“Generation of functional beta cells from human pluripotent stem cell-derived endocrine progenitors” (Novo Nordisk A/S, priority 2016, dated 2022)", "test_system": "hPSC-derived beta cells", "assay": "Perfusion assay of dynamic human insulin secretion in vitro", "format": "cell-based", "conditions": "human insulin ELISA", "method": "Mature beta cells are functionally defined by their rapid response to elevated glucose. Secretion of human insulin by beta cells at the end of BC step 2 was measured as repeated responses to 20 mM glucose±1 μM exendin-4 or ±the anti-diabetic sulfonylurea compound Tolbutamide within a perfusion system.\nBriefly, groups of 300 hand-picked, clusters of hESC- or hiPSC-derived cell clusters were suspended with beads (Bio-Rad #150-4124) in plastic chambers of Biorep PERFUSION SYSTEM (Biorep #PERI-4.2). Under temperature- and CO2-controlled conditions, the cells were perfused at 0.5 ml min-1 with a Krebs buffer. Prior to sample collection, cells were equilibrated under basal (2 mM glucose) conditions for 1 h. During perfusion cells were exposed to repeated challenges with 20 mM glucose±1 μM exendin-4 or ±100 μM Tolbutamide. At the end of perfusion, cells were exposed to cAMP-elevating agents on top of 20 mM glucose. Insulin secretion was measured by human insulin ELISA (Mercodia).", "data": [{"compound": "CCCCNC(=O)NS(=O)(=O)c1ccc(C)cc1", "note": "[tolbutamide, Tolbutamide]", "values": [{"measurement": "effect on insulin secretion", "setting": "100 μM Tolbutamide with 20 mM glucose, day 7 of BC step 2", "result": "significant additive effect"}]}, {"compound": "exendin-4", "values": [{"measurement": "level of insulin secretion", "setting": "1 μM exendin-4 with 20 mM glucose, day 3 and day 7 of BC step 2", "result": "increased the level of insulin secretion"}]}]}
